Experiment: solvent given as SMILES

Question: With c1ccc(-c2cc3cccc4cc(-c5ccccc5)c5cc(-c6cc7[b-]8c(c6)c(-c6ccccc6)cc6cccc(cc7-c7ccccc7)[n+]86)cc2[b-]5[n+]34)cc1 as the compound, how does the absorption maximum (in C1CCCCC1) read?
Answer: 444 nm

Question: Which absorption maximum (in CC#N) does the source give for Oc1ccccc1/C=N/N=C/c1ccccc1O here?
Answer: 355 nm

Question: And the absorption maximum (in CC(C)CCCC(C)CCCC(C)CCCCC(C)CCCC(C)CCCC(C)C)?
Answer: 363 nm

Question: What about the absorption maximum (in CCCCCC) of the same compound?
Answer: 361 nm

Question: What about the absorption maximum (in CCCCCCCCC) of the same compound?
Answer: 362 nm

Question: And the absorption maximum (in CCCCCCCCCCCCCCCC)?
Answer: 363 nm

Question: And the absorption maximum (in CCCCl)?
Answer: 359 nm

Question: What about the absorption maximum (in CCN(CC)CC) of the same compound?
Answer: 359 nm

Question: What about the absorption maximum (in CCO) of the same compound?
Answer: 356 nm

Question: And the absorption maximum (in CCOCC)?
Answer: 358 nm

Question: And the absorption maximum (in CO)?
Answer: 355 nm

Question: And the absorption maximum (in O=C(O)C(F)(F)F)?
Answer: 398 nm

Question: What about the absorption maximum (in OC(C(F)(F)F)C(F)(F)F) of the same compound?
Answer: 345 nm

Question: What about the absorption maximum (in OCC(F)(F)F) of the same compound?
Answer: 350 nm

Question: And the absorption maximum (in OCCO)?
Answer: 357 nm

Question: What does the source list for Cc1nc2c(ccc3c2sc(/C=C/c2ccc(N4CCN(C)CC4)cc2)[n+]3C)s1?
Answer: absorption maximum (in CO): 505 nm; absorption maximum (in ClC(Cl)Cl): 545 nm

Question: For COc1cc2c(cc1OC)C1=C[C@H](c3ccccc3)C3(C(C#N)=C(C#N)N1CC2)c1cc(Cl)ccc1-c1ccc(Cl)cc13, which absorption maximum (in ClCCl) is on record?
Answer: 310 nm

Question: For COc1ccc(/C=C/c2ccncn2)cc1, which absorption maximum (in ClCCl) is on record?
Answer: 338 nm

Question: With C[Si](C)(C)C#CC#Cc1ccc2c3cccc4cccc(c5cccc1c52)c43 as the compound, how does the absorption maximum (in C1CCCCC1) read?
Answer: 470 nm

Question: Which absorption maximum (in ClCCl) does the source give for COc1ccc(C2=Cc3cc4ccccc4cc3P2(=O)c2ccccc2)cc1 (stereo unspecified) here?
Answer: 395 nm

Question: Which absorption maximum (in CC(=O)O) does the source give for CCN(CC)c1ccc(/N=N/c2cc3c(=O)[nH][nH]c(=O)c3cc2[N+](=O)[O-])c(NC(C)=O)c1 here?
Answer: 532 nm

Question: And the absorption maximum (in CN(C)C=O)?
Answer: 518 nm

Question: What about the absorption maximum (in CS(C)=O) of the same compound?
Answer: 519 nm

Question: What does the source list for CCCCCCCCCCCCN1C(=O)c2cccc3c(N(Cc4ccccn4)Cc4ccccn4)c4ccccc4c(c23)C1=O?
Answer: absorption maximum (in C1CCOC1): 497 nm; absorption maximum (in CCCCCC): 480 nm; absorption maximum (in CCO): 488 nm; absorption maximum (in Cc1ccccc1): 492 nm; absorption maximum (in ClCCl): 500 nm

Question: Which absorption maximum (in ClC(Cl)Cl) does the source give for CC1=CC(/C=C/c2ccc(N(C)C)cc2)=[N+]2C1=C(c1ccccc1)c1c(C)cc(/C=C/c3ccc(N(C)C)cc3)n1[B-]2(F)F here?
Answer: 700 nm

Question: For COc1cc2cc(OC)c(-c3ccc([N+](=O)[O-])cc3)cc2cc1-c1ccc([N+](=O)[O-])cc1, which absorption maximum (in ClC(Cl)Cl) is on record?
Answer: 336 nm

Question: And the absorption maximum (in ClCCl)?
Answer: 337 nm

Question: With Cc1ccc2sc3cc(CCC(=O)O)ccc3c(=O)c2c1 as the compound, how does the absorption maximum (in CC#N) read?
Answer: 401 nm

Question: And the absorption maximum (in CO)?
Answer: 402 nm

Question: Which absorption maximum (in CS(C)=O) does the source give for O=c1c2cc(S(=O)(=O)Cl)ccc2[nH]c2ccc(S(=O)(=O)Cl)cc12 here?
Answer: 399 nm

Question: Which results are given for CN(C)CCN(Cc1c2ccccc2cc2ccccc12)c1ccc([N+](=O)[O-])cc1[N+](=O)[O-]?
Answer: absorption maximum (in C1CCCCC1): 372 nm; absorption maximum (in C1CCOC1): 394 nm; absorption maximum (in CC#N): 392 nm; absorption maximum (in CC(C)=O): 392 nm; absorption maximum (in CCO): 394 nm; absorption maximum (in CN(C)C=O): 395 nm; absorption maximum (in CO): 391 nm; absorption maximum (in CS(C)=O): 397 nm; absorption maximum (in ClC(Cl)Cl): 393 nm; absorption maximum (in ClCCl): 394 nm

Question: With N#C/C(=C\c1ccncc1)c1nc(-c2ccccc2)cs1 as the compound, how does the absorption maximum (in CC#N) read?
Answer: 361 nm

Question: And the absorption maximum (in CCO)?
Answer: 370 nm

Question: What about the absorption maximum (in CN(C)C=O) of the same compound?
Answer: 368 nm

Question: What about the absorption maximum (in CS(C)=O) of the same compound?
Answer: 371 nm

Question: What about the absorption maximum (in Cc1ccccc1) of the same compound?
Answer: 372 nm

Question: And the absorption maximum (in ClCCl)?
Answer: 418 nm

Question: With CC(C)(C)c1ccc2oc3nc4oc5ccc(-n6c7ccccc7c(=O)c7ccccc76)cc5c4cc3c2c1 as the compound, how does the absorption maximum (in ClC(Cl)Cl) read?
Answer: 396 nm

Question: Which absorption maximum (in Cc1ccccc1) does the source give for CCCC1=Cc2nc1ccc1[nH]c(cc1CCC)c1nc(c(OC(=O)CCCNC(=O)OC(C)(C)C)cc3[nH]c2cc3CCC)C(CCC)=C1 here?
Answer: 645 nm

Question: For O=c1c2cc(Br)ccc2nc2n1[B-](F)(F)[n+]1ccccc1-2, which absorption maximum (in CC#N) is on record?
Answer: 343 nm

Question: And the absorption maximum (in ClCCl)?
Answer: 358 nm

Question: With COC(=O)C(Cc1ccc2oc(-c3ccncc3)nc2c1)NC(=O)OC(C)(C)C (stereo unspecified) as the compound, how does the absorption maximum (in CC1CCCCC1) read?
Answer: 307.12 nm

Question: And the absorption maximum (in CC#N)?
Answer: 302.86 nm

Question: And the absorption maximum (in CO)?
Answer: 306.08 nm

Question: For CC1=C(C2=C(C)C(C)=[N+]3C2=Cc2cc(C)c(C)n2[B-]3(F)F)C2=Cc3cc(C)c(C)n3[B-](F)(F)[N+]2=C1C, which absorption maximum (in ClCCl) is on record?
Answer: 557 nm

Question: For N#Cc1c2oc3ccccc3oc2c(C#N)c2oc3ccccc3oc12, which absorption maximum (in ClC(Cl)Cl) is on record?
Answer: 430 nm

Question: Which absorption maximum (in O) does the source give for [NH3+]C(Cc1c[nH]c2ccccc12)C(=O)[O-] (stereo unspecified) here?
Answer: 277 nm

Question: Which absorption maximum (in C1CCCCC1) does the source give for COc1cc(/C=C2/SC(=O)NC2=O)cc(OC)c1O here?
Answer: 354 nm

Question: What about the absorption maximum (in C1COCCO1) of the same compound?
Answer: 367 nm

Question: What about the absorption maximum (in CC#N) of the same compound?
Answer: 362 nm

Question: What about the absorption maximum (in CN(C)C=O) of the same compound?
Answer: 341 nm

Question: What about the absorption maximum (in CO) of the same compound?
Answer: 359 nm

Question: What about the absorption maximum (in O) of the same compound?
Answer: 358 nm

Question: What about the absorption maximum (in OCC(O)CO) of the same compound?
Answer: 364 nm

Question: And the absorption maximum (in OCCO)?
Answer: 370 nm

Question: With F[B-]1(F)N2C=CN=CC2=[N+]2[N+]1=Cc1c(-c3ccccc3)cc(-c3cccs3)n1[B-]2(F)F as the compound, how does the absorption maximum (in ClCCl) read?
Answer: 533 nm

Question: For COc1ccc(-c2oc3cccc4c5c(-c6ccc(OC)cc6)/c(=N/S(=O)(=O)C(F)(F)F)oc6cccc(c2c34)c65)cc1, which absorption maximum (in ClC(Cl)Cl) is on record?
Answer: 480 nm

Source: the Deep4Chem optical property database
